Assay results reported in patent publication US7161032B2, “Sulfonamide derivatives, insecticides for agricultural and horticultural use, and usage thereof” (Nihon Nohyaku Co., Ltd., priority 2002, dated 2007).

Experiments:
Assay type in all cases: in vivo
[1] = test system: Smaller Tea Tortrix (Adoxophyes sp.); test: Insecticidal effect on smaller tea tortrix (Test Example 3): tea leaves immersed in 50 ppm liquid chemical; conditions: smaller tea tortrix (Adoxophyes sp.) larvae, 8 days after inoculation, 25° C., humidity 70%
In short: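 Tea leaves dipped about 30 seconds in 50 ppm compound preparation, air-dried, then infested with larvae and held at 25° C and 70% humidity. Dead and alive counted 8 days after inoculation; triplicate groups of 10 insects.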

[2] = test system: Diamond Back Moth (Plutella xylostella); test: Insecticidal effect on diamond back moth (Test Example 1): egg-bearing Chinese cabbage seedling immersed in 50 ppm liquid chemical
In short: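 Seedlings bearing 2-day-old eggs dipped about 30 s in 50 ppm formulated compound, air-dried, held at 25° C. Hatched larvae counted 6 days after immersion; mortality calculated and graded by criterion. Triplicate groups of 10 insects.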

[3] = test system: Common Cutworm (Spodoptera litura); test: Insecticidal effect on common cutworm (Test Example 2): cabbage leaf piece immersed in 50 ppm liquid chemical; conditions: common cutworm (Spodoptera litura) second-instar larvae, 8 days after inoculation, 25° C.
In short: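 Cabbage leaf pieces (cv. Shikidori) dipped ~30 s in formulated compound at 50 ppm and air-dried. Second-instar larvae added, kept at 25° C. Dead and alive counted at 8 days to give % mortality, scored against a criterion scale; three groups of 10 insects.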

| Structure (SMILES) | Insecticidal effect (mortality grade), Test Example 3 [1] | Insecticidal effect (mortality grade), Test Example 1 [2] | Insecticidal effect (mortality grade), Test Example 2 [3] |
| --- | --- | --- | --- |
| Cc1cc(C(F)(C(F)(F)F)C(F)(F)F)ccc1NC(=O)c1cccc(Br)c1C(=O)NC(C)CS(=O)(=O)NCc1ccccc1 (stereo not drawn) [1-218] | A (Mortality 100%) | A (Mortality 100%) | A (Mortality 100%) |
| CCN(CC)S(=O)(=O)CC(C)(C)NC(=O)c1c(Br)cccc1C(=O)Nc1ccc(C(F)(C(F)(F)F)C(F)(F)F)cc1C [1-219] | A (Mortality 100%) | A (Mortality 100%) | A (Mortality 100%) |
| CCNS(=O)(=O)CC(C)NC(=O)c1c(I)cccc1C(=O)Nc1ccc(Cl)c(Cl)c1Cl (stereo not drawn) [1-266] | E (Mortality less than 50%) | A (Mortality 100%) | C (Mortality 89–80%) |
| CCN(CC)S(=O)(=O)CC(C)NC(=O)c1c(I)cccc1C(=O)Nc1ccc(Cl)c(Cl)c1Cl (stereo not drawn) [1-267] | E (Mortality less than 50%) | A (Mortality 100%) | C (Mortality 89–80%) |
| CCN(CC)S(=O)(=O)CC(C)(C)NC(=O)c1c(I)cccc1C(=O)Nc1ccc(Cl)c(Cl)c1Cl [1-268] | A (Mortality 100%) | A (Mortality 100%) | A (Mortality 100%) |
| CCNS(=O)(=O)CC(C)NC(=O)c1c(I)cccc1C(=O)Nc1ccc(OC(F)(F)F)cc1C (stereo not drawn) [1-275] | E (Mortality less than 50%) | A (Mortality 100%) | E (Mortality less than 50%) |
| CCN(CC)S(=O)(=O)CC(C)NC(=O)c1c(I)cccc1C(=O)Nc1ccc(OC(F)(F)F)cc1C (stereo not drawn) [1-276] | E (Mortality less than 50%) | A (Mortality 100%) | E (Mortality less than 50%) |
| CCN(CC)S(=O)(=O)CC(C)(C)NC(=O)c1c(I)cccc1C(=O)Nc1ccc(OC(F)(F)F)cc1C [1-277] | A (Mortality 100%) | A (Mortality 100%) | A (Mortality 100%) |
| CCN(CC)S(=O)(=O)CC(C)NC(=O)c1c(I)cccc1C(=O)Nc1ccc(OC(F)(F)F)cc1Cl (stereo not drawn) [1-285] | E (Mortality less than 50%) | A (Mortality 100%) | C (Mortality 89–80%) |
| CCN(CC)S(=O)(=O)CC(C)(C)NC(=O)c1c(I)cccc1C(=O)Nc1ccc(OC(F)(F)F)cc1Cl [1-286] | E (Mortality less than 50%) | A (Mortality 100%) | A (Mortality 100%) |
| CCN(CC)S(=O)(=O)CC(C)NC(=O)c1c(I)cccc1C(=O)Nc1ccc(C(F)(F)C(F)(F)F)cc1C (stereo not drawn) [1-301] | A (Mortality 100%) | A (Mortality 100%) | A (Mortality 100%) |
| CCN(CC)S(=O)(=O)CC(C)(C)NC(=O)c1c(I)cccc1C(=O)Nc1ccc(C(F)(F)C(F)(F)F)cc1C [1-302] | A (Mortality 100%) | A (Mortality 100%) | A (Mortality 100%) |
| Cc1cc(C(F)(F)C(F)(F)F)ccc1NC(=O)c1cccc(I)c1C(=O)NC(C)(C)CS(=O)(=O)NCc1ccccc1 [1-303] | A (Mortality 100%) | A (Mortality 100%) | A (Mortality 100%) |
| CSCCNS(=O)(=O)CC(C)(C)NC(=O)c1c(I)cccc1C(=O)Nc1ccc(C(F)(F)C(F)(F)F)cc1C [1-304] | A (Mortality 100%) | A (Mortality 100%) | A (Mortality 100%) |
| Cc1cc(C(F)(F)C(F)(F)F)ccc1NC(=O)c1cccc(I)c1C(=O)NC(C)(C)CS(=O)(=O)NCC[S+](C)[O-] (stereo not drawn) [1-305] | A (Mortality 100%) | A (Mortality 100%) | A (Mortality 100%) |
| Cc1cc(C(F)(F)C(F)(F)F)ccc1NC(=O)c1cccc(I)c1C(=O)NC(C)(C)CS(=O)(=O)NCCS(C)(=O)=O [1-306] | A (Mortality 100%) | A (Mortality 100%) | A (Mortality 100%) |
| CCSCCNS(=O)(=O)CC(C)(C)NC(=O)c1c(I)cccc1C(=O)Nc1ccc(C(F)(F)C(F)(F)F)cc1C [1-307] | A (Mortality 100%) | A (Mortality 100%) | A (Mortality 100%) |
| CC[S+]([O-])CCNS(=O)(=O)CC(C)(C)NC(=O)c1c(I)cccc1C(=O)Nc1ccc(C(F)(F)C(F)(F)F)cc1C (stereo not drawn) [1-308] | A (Mortality 100%) | A (Mortality 100%) | A (Mortality 100%) |
| CCS(=O)(=O)CCNS(=O)(=O)CC(C)(C)NC(=O)c1c(I)cccc1C(=O)Nc1ccc(C(F)(F)C(F)(F)F)cc1C [1-309] | A (Mortality 100%) | A (Mortality 100%) | A (Mortality 100%) |
| Cc1cc(C(F)(F)C(F)(F)F)ccc1NC(=O)c1cccc(I)c1C(=O)NC(C)(C)CS(=O)(=O)NCCSc1ccccc1 [1-310] | A (Mortality 100%) | A (Mortality 100%) | A (Mortality 100%) |
| Cc1cc(C(C(F)(F)F)C(F)(F)F)ccc1NC(=O)c1cccc(I)c1C(=O)NC(C)CS(N)(=O)=O (stereo not drawn) [1-342] | A (Mortality 100%) | A (Mortality 100%) | A (Mortality 100%) |
| CCN(CC)S(=O)(=O)CC(C)(C)NC(=O)c1c(I)cccc1C(=O)Nc1ccc(C(C(F)(F)F)C(F)(F)F)cc1C [1-344] | A (Mortality 100%) | A (Mortality 100%) | A (Mortality 100%) |
| Cc1cc(C(C(F)(F)F)C(F)(F)F)ccc1NC(=O)c1cccc(I)c1C(=O)NC(C)(C)CS(=O)(=O)N1CCCC1 [1-345] | A (Mortality 100%) | A (Mortality 100%) | A (Mortality 100%) |
